Values quoted from earlier work, collected in patent US20250090617A1, “FORMULATIONS FOR TREATING OBESITY AND DIABETES AND FOR PROVIDING OTHER HEALTH RELATED BENEFITS” (Healthrite Partners, LLC, priority 2019, published 2025).

Test system: cellular ATP
Details: several studies, including clinical studies in humans

For `Oc1ncnc2[nH]ncc12` [Allopurinol], the “effect on cellular ATP” value is listed as “increase in cellular ATP”.

In the case of `Cc1nc(-c2ccc(OCC(C)C)c(C#N)c2)sc1C(=O)O` [Febuxostat], the “effect on cellular ATP” value is given as “increase in cellular ATP”.

For `OC[C@H]1O[C@@H](n2cnc3c(O)ncnc32)[C@H](O)[C@@H]1O` [Inosine], the “effect on cellular ATP” value is given as “did not affect ATP levels”.
